According to patent publication US20240174690A1, “ANNULATED 2-AMINO-3-CYANO THIOPHENES AND DERIVATIVES FOR THE TREATMENT OF CANCER” (BOEHRINGER INGELHEIM INTERNATIONAL GMBH, priority 2021, published 2024):
Converted amounts (≈) assume the structure as drawn. Where two headings read alike, the source gives them in different places.

Tests used:
[1] = Caco-2 assay (permeability PappAB, PappBA, efflux ratio); format: in vitro ADME; conditions: human, Caco-2, 10 μM test compound, pH 7.4; for Papp A→B at 90 min, 10 μM: apical to basolateral; for efflux ratio at 90 min, 10 μM: efflux ratio PappBA/PappAB, read-out: Caco ER
Outline: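 Confluent Caco-2 monolayers on filter supports, 0.25% BSA in both donor and receiver buffer; transport measured a-b and b-a. After 25-30 min preincubation at 37 °C, samples at 0, 30, 60, 90 min quantified by HPLC/MS/MS. Papp from receiver amount per time, filter area and initial donor concentration; efflux ratio = PappBA/PappAB.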

[2] = system: KRAS G12C-dependent Ba/F3 cells; test: Ba/F3 proliferation assay, KRAS G12C; format: cell-based; conditions: Mus musculus, BaF3, 72 h, AlamarBlue
Outline: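 Ba/F3 cells were retrovirally transduced with KRAS G12 mutant vectors, puromycin-selected (1 μg/mL) and grown without IL-3 to make them KRAS-dependent. Compounds were tested in technical duplicates, viability was read by AlamarBlue fluorescence, and values came from curve fitting.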

NCI-H2122 cells = test: NCI-H2122 CTG proliferation assay (120 h) (NSCLC, G12C); format: cell-based; conditions: Homo sapiens
Outline: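 NCI-H2122 cells (KRAS G12C NSCLC), 200 per well in RPMI with 10% FCS, were dosed with compound on day 1 and incubated 120 h at 37 °C. Viability was read by CellTiter-Glo luminescence as percent of DMSO control, and IC50 was fitted with a four-parameter model.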

[3] = Solubility measurement (DMSO solution method), McIlvaine buffer pH 4.5 or 6.8; format: physicochemical; conditions: aqueous buffer, kinetic from dmso stock, DMSO stock diluted to 250 μM, 24 h shaking at ambient temperature
Outline: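 DMSO stock diluted into McIlvaine buffer, pH 4.5 or 6.8, to 250 µM final, shaken 24 h at ambient temperature. Precipitate removed by filtration; filtrate quantified by LC-UV against a fully dissolved reference in acetonitrile/water 1:1.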

[4] = McIlvaine buffer pH 4.5, read-out: solubility pH 4.5
[5] = McIlvaine buffer pH 6.8, read-out: solubility pH 6.8

Row | SMILES | Papp A→B at 90 min, 10 μM [1] | efflux ratio at 90 min, 10 μM [1] | IC50 [2] | IC50 (NCI-H2122 cells) | solubility at 24 h [3, 4] | solubility at 24 h [3, 5]
1 | C[C@H](Oc1cc(N2CCNC(C)(C)C2)nc(-c2noc3c2CCC[C@@]32CCCc3sc(N)c(C#N)c32)n1)[C@@H]1CCCN1C [II-32] | 0.3 ×10⁻⁶ cm/s | 76.6 | 0.474 µM | 3.3 µM | > 121 µg/mL | 117 µg/mL (≈ 194 µM)
2 | C[C@H](Oc1cc(N2CCN(C)C3(COC3)C2)nc(-c2noc3c2CCC[C@@]32CCCc3sc(N)c(C#N)c32)n1)[C@@H]1CCCN1C [II-13] | 1.4 ×10⁻⁶ cm/s | 21.4 | 0.12 µM | 5.02 µM | > 139 µg/mL | > 147 µg/mL
3 | C[C@H](Oc1cc(N2CCN(CCO)CC2)nc(-c2noc3c2CCC[C@@]32CCCc3sc(N)c(C#N)c32)n1)[C@@H]1CCCN1C [II-8] | 1.1 ×10⁻⁶ cm/s | 12.7 | 0.301 µM | 0.933 µM | > 141 µg/mL | > 132 µg/mL
4 | C[C@H](Oc1cc(-n2ccc(C(N)=O)n2)nc(-c2noc3c2CCC[C@@]32CCCc3sc(N)c(C#N)c32)n1)[C@@H]1CCCN1C [II-21] | 3.5 ×10⁻⁶ cm/s | 6.6 | 0.004 µM | 0.128 µM | 80 µg/mL (≈ 133 µM) | 34 µg/mL (≈ 56.7 µM)
5 | C[C@H](Oc1cc(-n2ccc(C(=O)NC3(C)COC3)n2)nc(-c2noc3c2CCC[C@@]32CCCc3sc(N)c(C#N)c32)n1)[C@@H]1CCCN1C [II-26] | 11 ×10⁻⁶ cm/s | 5.8 | 0.005 µM | 0.143 µM | > 194 µg/mL | 62 µg/mL (≈ 92.6 µM)
6 | C[C@H](Oc1cc(N2CC[C@H](N3CCCC3)C2)nc(-c2noc3c2CCC[C@@]32CCCc3sc(N)c(C#N)c32)n1)[C@@H]1CCCN1C [II-14] | 1 ×10⁻⁶ cm/s | 32.3 | 0.293 µM | 1.39 µM | > 151 µg/mL | 123 µg/mL (≈ 196 µM)
7 | C[C@H](Oc1cc(-c2ccn(C3COC3)n2)nc(-c2onc3c2CCC[C@@]32CCCc3sc(N)c(C#N)c32)n1)[C@@H]1CCCN1C [I-34] | 3.6 ×10⁻⁶ cm/s | 9.2 | 0.007 µM | 1.07 µM | > 135 µg/mL | 92 µg/mL (≈ 150 µM)
8 | C[C@H](Oc1cc(-n2ccnc2)nc(-c2onc3c2CCC[C@@]32CCCc3sc(N)c(C#N)c32)n1)[C@@H]1CCCN1C [I-20] | 4.3 ×10⁻⁶ cm/s | 4.9 | 0.014 µM | 1.36 µM | > 157 µg/mL | 98 µg/mL (≈ 176 µM)
9 | C[C@H](Oc1cc(N2C[C@H](C)N(C)[C@@H](C)C2)nc(-c2onc3c2CCC[C@@]32CCCc3sc(N)c(C#N)c32)n1)[C@@H]1CCCN1C [I-43] | 2.6 ×10⁻⁶ cm/s | 6.7 | 0.17 µM | 1.41 µM | > 346 µg/mL | > 306 µg/mL
10 | C[C@H](Oc1cc([C@@H]2CCN(C)C2)nc(-c2noc3c2CCC[C@@]32CCCc3sc(N)c(C#N)c32)n1)[C@@H]1CCCN1C [II-37] | 0.2 ×10⁻⁶ cm/s | 121 | 0.132 µM | 5.5 µM | > 152 µg/mL | > 152 µg/mL
11 | C[C@H](Oc1cc(N2CC3CCC(C2)N3)nc(-c2noc3c2CCC[C@@]32CCCc3sc(N)c(C#N)c32)n1)[C@@H]1CCCN1C [II-34] | 0.4 ×10⁻⁶ cm/s | 37.8 | 0.527 µM | 9.01 µM | > 146 µg/mL | 114 µg/mL (≈ 190 µM)
12 | C[C@H](Oc1cc(N2CC[C@H](N(C)C)C2)nc(-c2noc3c2CCC[C@@]32CCCc3sc(N)c(C#N)c32)n1)[C@@H]1C[C@@H](F)CN1C [II-15] |  | 5.3 | 0.323 µM | 2.42 µM | > 144 µg/mL | > 130 µg/mL
13 | C[C@H](Oc1cc([C@@H]2CCOC2)nc(-c2onc3c2CCC[C@@]32CCCc3sc(N)c(C#N)c32)n1)[C@@H]1CCCN1C [I-22] | 18 ×10⁻⁶ cm/s | 1.9 | 0.009 µM | 10.2 µM | 112 µg/mL (≈ 200 µM) | 104 µg/mL (≈ 185 µM)
14 | C[C@H](Oc1cc(N2CCNC3(CCC3)C2)nc(-c2noc3c2CCC[C@@]32CCCc3sc(N)c(C#N)c32)n1)[C@@H]1CCCN1C [II-40] | 0.8 ×10⁻⁶ cm/s | 39.7 | 0.381 µM | 1.42 µM | > 140 µg/mL | > 133 µg/mL
15 | CNC(=O)c1ccn(-c2cc(O[C@@H](C)[C@@H]3CCCN3C)nc(-c3noc4c3CCC[C@@]43CCCc4sc(N)c(C#N)c43)n2)n1 [II-20] | 11.1 ×10⁻⁶ cm/s | 3.3 | 0.002 µM | 2.04 µM | 83 µg/mL (≈ 135 µM) | 33 µg/mL (≈ 53.8 µM)
